Measurements published in BigSolDB 2.1.

Conditions: in water

O=C(O)CCCC(=O)O
Conditions	solubility (mole fraction)
288.05 K	0.125
292.95 K	0.151
297.85 K	0.176
303.25 K	0.204
308.05 K	0.232
312.95 K	0.26
318.05 K	0.297
322.25 K	0.328
326.75 K	0.361
330.85 K	0.4
